Source: paper PMC11012124, “Synthesis of Novel Triazine-Based Chalcones and 8,9-dihydro-7H-pyrimido[4,5-b][1,4]diazepines as Potential Leads in the Search of Anticancer, Antibacterial and Antifungal Agents” (International Journal of Molecular Sciences, 2024)
Converted amounts (≈) assume the structure as drawn.

Columns and labels:
[1] = Hemolytic activity, spectrophotometric; format: cell-based, human; details: human, human red blood cells (huRBC), 5% hematocrit, 200 μg/mL, 37 °C
[2] = test system: N. gonorrhoeae ATCC 49226; test: MIC on GC agar plates; format: cell-based, Neisseria gonorrhoeae; details: Neisseria gonorrhoeae, ATCC49226, read-out: MIC
Protocol: An initial screening for bacterial inhibition was performed by the agar diffusion method. […] DMSO and TSB were included as negative controls. Gentamicin and trimethoprim sulfamethoxazole were included as a positive control for growth inhibition. Derivatives showing growth inhibition were tested at least twice before being selected for the microdilution test. For N. gonorrhoeae, the agar diffusion method was also used for screening with some modifications. […] Penicillin and tetracycline were used as controls. […] Briefly, GC agar supplemented with 1% isovitalex was prepared with increasing concentrations of the new compounds and inoculated with 10 µL of a bacterial suspension (1 × 10^4 CFU). The lowest concentration of the compound that inhibited bacterial growth was determined as the MIC. Bacterial growth was examined and verified using the oxidase test. The experiments were performed in duplicate in at least two independent assays.

[3] = test system: 60 cancer cell lines; test: NCI-60 one-dose screen (10 μM); format: cell-based; details: Homo sapiens; one dose of 10 μM, mean over 60 cancer cell lines; read-out: Mean Growth Percent (MGP)
Description: Additionally, the mean of the growth percentages (MGP) of each compound against all the 60 cancer cell lines is also reported, which is used as one of the selection criteria to continue with tests at five concentration doses.

[4] = test system: Candida albicans (ATCC 10231); test: Antifungal broth microdilution (CLSI); format: cell-based; details: ATCC10231; Ca: Candida albicans
Protocol: (§1) Several of the obtained triazine derivatives were evaluated against sensitive fungal species comprising of two yeasts (Candida albicans (ATCC 10231), Cryptococcus neoformans (ATCC 32264)), three dermatophytes (Microsporum gypseum (CCC 115), Trichophyton rubrum (CCC 134-2000), Trichophyton mentagrophytes (CCC 202-2000)), and three Aspergillus fungi ((A. [NT] 26934), A. niger (ATCC 9029), and A. flavus (ATCC 9170)). […] Broth microdilution techniques were performed in 96-well microplates according to the Reference Method for Broth Dilution Antifungal Susceptibility Testing of Yeasts, document M27-A3 [86] and of Filamentous Fungi […]-A8 [87]. […] An inoculum suspension (100 μL) was added to each well (final well volume = 200 μL). One growth control well (containing medium, inoculum, and the same amount of DMSO as used for each compound) and one sterility control well (sample, medium, and sterile water instead of inoculum) were included for each fungus tested. Microtiter plates were incubated in a dark, humid chamber at 30 °C for the time necessary for each fungus. Amphotericin B, Terbinafine, Fluconazole and Itraconazole were used as a positive control. The tests were performed in triplicate.

[5] = test system: M. tuberculosis ATCC 27294; test: Antitubercular broth microdilution MIC; format: cell-based; details: Mycobacterium tuberculosis; M. tuberculosis ATCC 27294 (H37Rv); read-out: Minimum inhibitory concentration (MIC)
[6] = test system: Cryptococcus neoformans (ATCC 32264); test: Antifungal broth microdilution (CLSI); format: cell-based; details: ATCC32264; Cn: Cryptococcus neoformans
Protocol: as §1

[7] = test system: human red blood cells (huRBC); test: Hemolytic activity, spectrophotometric; format: cell-based; details: 200 μg/mL, 24 h, 37 °C
[8] = test system: RXF 393; test: cells; details: Homo sapiens, RXF 393, 48 h
[9] = test system: CAKI-1; test: cells; details: Homo sapiens, CAKI-1, 48 h
[10] = test system: HCT-116; test: cells; details: Homo sapiens, HCT-116, 48 h
[11] = test system: MOLT-4; test: cells; details: Homo sapiens, MOLT-4, 48 h
[12] = test system: A. fumigatus (ATCC 26934); test: Antifungal broth microdilution (CLSI); format: cell-based; details: ATCC26934; Afu: Aspergillus fumigatus
Protocol: as §1

[13] = test system: A. flavus (ATCC 9170); test: Antifungal broth microdilution (CLSI); format: cell-based; details: ATCC9170; Afl: Aspergillus flavus
Protocol: as §1

[14] = test system: A. niger (ATCC 9029); test: Antifungal broth microdilution (CLSI); format: cell-based; details: ATCC9029; Ani: Aspergillus niger
Protocol: as §1

[15] = test system: Trichophyton rubrum (CCC 134-2000); test: Antifungal broth microdilution (CLSI); format: cell-based; details: Tr: Trichophyton rubrum
Protocol: as §1

[16] = test system: Microsporum gypseum (CCC 115); test: Antifungal broth microdilution (CLSI); format: cell-based; details: Nannizzia gypsea; Mg: Microsporum gypseum
Protocol: as §1

[17] = test system: Trichophyton mentagrophytes (CCC 202-2000); test: Antifungal broth microdilution (CLSI); format: cell-based; details: Tm: Trichophyton mentagrophytes
Protocol: as §1

Structure (SMILES)	hemolysis at 24 h, 200 µg/mL [1] [%]	MIC [2] [µg/mL]	activity at 10 µM [3] [%]	further results
COc1cc(C2CC(c3ccc(C)cc3)=Nc3c(N)nc(N)nc3N2)ccc1Oc1nc(NCCO)nc(N2CCOCC2)n1 (centres unmarked) [28b]	5	4 (≈ 6.52 µM)	89.7	
COc1ccc(C2CC(c3ccc(Nc4nc(NCCO)nc(Nc5ccc(Cl)cc5)n4)cc3)=Nc3c(N)nc(N)nc3N2)cc1 (centres unmarked) [33c]	5	2 (≈ 3.13 µM)	63.3	
COc1cc(C2CC(c3cc(OC)c(OC)c(OC)c3)=Nc3c(N)nc(N)nc3N2)ccc1Oc1nc(NCCO)nc(N2CCOCC2)n1 (centres unmarked) [28d]	1	2 (≈ 2.9 µM)	98.9	
Nc1nc(N)c2c(n1)NC(c1ccc(C(F)(F)F)cc1)CC(c1ccc(Nc3nc(NCCO)nc(N4CCOCC4)n3)cc1)=N2 (centres unmarked) [32g]	2	4 (≈ 6.28 µM)	64.8	
CCC(C)n1ncn(-c2ccc(N3CCN(c4ccc(OCC5COC(Cn6cncn6)(c6ccc(Cl)cc6Cl)O5)cc4)CC3)cc2)c1=O (centres unmarked) [Itraconazole, reference compound]				MIC [4]: 0.5 µg/mL (≈ 0.709 µM)
Cc1ccc(C2CC(c3ccc(Nc4nc(NCCO)nc(N5CCOCC5)n4)cc3)=Nc3c(N)nc(N)nc3N2)cc1 (centres unmarked) [32b]	1	4 (≈ 6.86 µM)	84.5	
Nc1nc(N)c2c(n1)NC(c1ccccc1)CC(c1ccc(Nc3nc(NCCO)nc(N4CCOCC4)n3)cc1)=N2 (centres unmarked) [32a]	2	8 (≈ 14.1 µM)	87.2	
COc1cc(C2CC(c3ccccc3)=Nc3c(N)nc(N)nc3N2)ccc1Oc1nc(Nc2ccc(F)cc2)nc(N(C)C)n1 (centres unmarked) [29a]	3	2 (≈ 3.29 µM)	40.2	MIC [5]: 5 µg/mL (≈ 8.23 µM)
OC(Cn1cncn1)(Cn1cncn1)c1ccc(F)cc1F [Fluconazole, reference compound]				MIC [6]: 0.25 µg/mL (≈ 0.816 µM); MIC [4]: 0.03 µg/mL (≈ 0.098 µM)
COc1cc(C2CC(c3ccc(C)cc3)=Nc3c(N)nc(N)nc3N2)ccc1Oc1nc(Nc2ccc(F)cc2)nc(N(C)C)n1 (centres unmarked) [29b]		≥ 500	51.3	MIC [5]: 0.6 µg/mL (≈ 0.965 µM)
COc1cc(C2CC(c3ccc(F)cc3)=Nc3c(N)nc(N)nc3N2)ccc1Oc1nc(NCCO)nc(N2CCOCC2)n1 (centres unmarked) [28f]	2	8 (≈ 13 µM)	98.2	
COc1cc(C2CC(c3ccc(C(F)(F)F)cc3)=Nc3c(N)nc(N)nc3N2)ccc1Oc1nc(NCCO)nc(N2CCOCC2)n1 (centres unmarked) [28g]		8 (≈ 12 µM)	99.4	% Hemolysis [7]: 100%
COc1cc(C2CC(c3ccc(C(F)(F)F)cc3)=Nc3c(N)nc(N)nc3N2)ccc1Oc1nc(Nc2ccc(F)cc2)nc(N(C)C)n1 (centres unmarked) [29g]		≥ 500	40.9	GI50 [8]: 1220 nM; CC50 ([8]; read-out: LC50): 34100 nM; GI50 [9]: 1650 nM; CC50 ([9]; read-out: LC50): > 100000 nM; GI50 [10]: 1760 nM; CC50 ([10]; read-out: LC50): 7560 nM; GI50 [11]: 1710 nM; CC50 ([11]; read-out: LC50): > 100000 nM; MIC [6]: > 250 µg/mL; MIC [4]: > 250 µg/mL; MIC [12]: > 250 µg/mL; MIC [13]: > 250 µg/mL; MIC [14]: > 250 µg/mL; MIC [15]: > 250 µg/mL; MIC [16]: 125 µg/mL (≈ 185 µM); MIC [17]: > 250 µg/mL; MIC [5]: 5 µg/mL (≈ 7.4 µM)
